Assay results published in patent publication US12377111B2, “Composition, comprising thiamine derivative, for prevention or treatment of hypercortisolemia” (KYUNGPOOK NATIONAL UNIVERSITY INDUSTRY-ACADEMIC COOPERATION …, priority 2018, dated 2025).
Like-named read-outs stand apart in the source and are kept apart here.

How the values were obtained:
NCI-H295R cells = test: Cortisol production in 8-Br-cAMP-stimulated NCI-H295R cells (ELISA); format: cell-based, human; details: for Cortisol production concentration: 0.5 mM 8-Br-cAMP, 12 h pretreatment + 24 h; for Cortisol production concentration / inhibition of cortisol production increased by 0.5 mM 8-Br-cAMP (in words): NCI-H295R; for reduction in cortisol production: compared with non-treatment group (with 8-Br-cAMP treatment); for inhibition of cortisol production increased by 0.5 mM 8-Br-cAMP (in words): 20, 50, 100 μM
Experimental: Cortisol secretion inhibitory effects by allithiamine (Shanghai iChemical Technology CO., LTD., China), fursultiamine (Toronto Research Chemicals, Canada), or benfotiamine (Sigma-Aldrich, St. Louis, MO, USA), which are thiamine (vitamin B1) based compounds, were tested. For this, cortisol reduction effects in adrenal tumors that excessively secret cortisol were measured.
NCI-H295R (ATCC #CRL-2128) cells, a human adrenocortical carcinoma cell line, were dispensed into 24-well plates at 2.5×10^5 cells/well. Then, the cells were incubated in DMEM/F12 growth media containing 2.5% Nu-serum, 1% ITS (insulin, transferrin, and selenium), bovine serum albumin (BSA), linoleic acid, and penicillin/streptomycin for 48 hours.
Thereafter, the media were exchanged with serum-free media, and then the NCI-H295R cells were pretreated with allithiamine, fursultiamine, or benfotiamine at concentrations of 20 μM, 50 μM, and 100 μM for 12 hours. The cells were treated with 8-bromoadenosine 3′,5′-cyclic monophosphate (8-Br-cAMP) at a concentration of 0.5 mM to increase cortisol synthesis, and again treated with allithiamine, fursultiamine, or benfotiamine at 20 μM, 50 μM, and 100 μM, followed by reaction for 24 hours. After the reaction, cell cultures were collected, and the amount of cortisol produced in the cells was measured using an enzyme-linked immunosorbent assay (ELISA) kit (Enzo Life Sciences, Inc., NY, USA).

CRH-overexpressed mice = tested on: CRH-overexpressed mice
Experimental: To investigate high-cortisol inhibitory effects, C57BL/6J normal mice (WT-con) aged 8 to 9 weeks and corticotropin-releasing hormone (CRH)-overexpressed mice, which are Cushing's syndrome animal models, were used. One group of CRH-overexpressed mice were orally administered with 60 mg/kg fursultiamine once a day for 9 weeks (CRH tg-Fur 60 mpk).
During this period, the body weight change was monitored by measuring body weights once a week. To check the concentration of corticosterone (in cases of rodents), blood was collected from the tail vein and serum was isolated. The concentration of corticosterone was measured from the isolated serum by using an enzyme-linked immunosorbent assay (ELISA) kit (Enzo Life Sciences, Inc., NY, USA). The fat mass was measured 6 weeks after administration of the drug by using a body composition analyzer (MiniSpec LF 50, Bruker Optics, Germany), and the fat distribution was again monitored with micro CT images 8 weeks after administration.

8-week-old male mice = details: for corticosterone concentration: serum, oral 24 h and 2 h before stress
Experimental: For the restraint stress test, 8-week-old male mice were used, and were orally administered with fursultiamine once 24 hours before and once 2 hours before stress induction. For induction of stress, the mice were individually placed head-first into well-ventilated 50 mL polypropylene tubes, which were then tied with a cap of the 50 mL tube, and the mice were confined for 2 hours. Before stress induction, 1 hour and 2 hours after induction, and at 1 hour of recovery, blood was collected from the tail vein and serum was isolated, and then the concentration of corticosterone was measured using ELISA kit.

In the case of C=CCSS/C(CCO)=C(/C)N(C=O)Cc1cnc(C)nc1N [allithiamine], the Cortisol production concentration (NCI-H295R cells; 20 μM compound) is reported as 10.5 ng/mL, the Cortisol production concentration (NCI-H295R cells; 50 μM compound) is reported as 6.4 ng/mL and the “reduction in cortisol production” value (NCI-H295R cells; 50 μM) is reported as 50.7%. The Cortisol production concentration (NCI-H295R cells; 100 μM compound) was 2.8 ng/mL, the “reduction in cortisol production” value (NCI-H295R cells; 100 μM) was 78.7% and the “inhibition of cortisol production increased by 0.5 mM 8-Br-cAMP (in words)” value (NCI-H295R cells) was “significantly inhibited the cortisol production”.
In the case of C/C(=C(\CCOP(=O)(O)O)SC(=O)c1ccccc1)N(C=O)Cc1cnc(C)nc1N [benfotiamine], the Cortisol production concentration (NCI-H295R cells; 20 μM compound) is reported as 14.0 ng/mL, the Cortisol production concentration (NCI-H295R cells; 50 μM compound) is reported as 12.0 ng/mL and the “reduction in cortisol production” value (NCI-H295R cells; 50 μM) is reported as 22.6%. For the same compound, the Cortisol production concentration (NCI-H295R cells; 100 μM compound) was 8.6 ng/mL, the “reduction in cortisol production” value (NCI-H295R cells; 100 μM) was 44.3% and the “inhibition of cortisol production increased by 0.5 mM 8-Br-cAMP (in words)” value (NCI-H295R cells) was “significantly inhibited the cortisol production”.
For CC(=C(CCO)SSCC1CCCO1)N(C=O)Cc1cnc(C)nc1N (stereo in doubt) [fursultiamine], the Cortisol production concentration (NCI-H295R cells; 20 μM compound) was 14.1 ng/mL, the Cortisol production concentration (NCI-H295R cells; 50 μM compound) was 9.0 ng/mL and the “reduction in cortisol production” value (NCI-H295R cells; 50 μM) was 43%. The Cortisol production concentration (NCI-H295R cells; 100 μM compound) was 7.5 ng/mL, the “reduction in cortisol production” value (NCI-H295R cells; 100 μM) was 52.4% and the “inhibition of cortisol production increased by 0.5 mM 8-Br-cAMP (in words)” value (NCI-H295R cells) was “significantly inhibited the cortisol production”. For the same compound, the “corticosterone synthesis concentration (in words)” value (CRH-overexpressed mice; CRH-overexpressed mice, 60 mg/kg oral) was “smaller compared with the normal group”, the “fat mass, Body weight (%)” value (CRH-overexpressed mice; CRH-overexpressed mice, 60 mg/kg oral once a day, 6 weeks after administration, body composition analyzer) was 23.4% and the “increase in body weight (in words)” value (CRH-overexpressed mice; CRH-overexpressed mice, 60 mg/kg oral, 9 weeks, vs CRH-overexpressed control) was “smaller increase in body weight compared with the control”. For the same compound, the “fat mass (in words)” value (CRH-overexpressed mice; CRH-overexpressed mice, 60 mg/kg oral, vs control) was “smaller compared with the control”, the Corticosterone (CRH-overexpressed mice; serum, CRH-overexpressed mice, 60 mg/kg oral once a day) was 87.1 ng/mL and the body weight (CRH-overexpressed mice; week 0, CRH-overexpressed mice, 60 mg/kg oral once a day) was 18.4. For the same compound, the body weight (CRH-overexpressed mice; week 1, CRH-overexpressed mice, 60 mg/kg oral once a day) was 17.8, the body weight (CRH-overexpressed mice; week 2, CRH-overexpressed mice, 60 mg/kg oral once a day) was 17.8 and the body weight (CRH-overexpressed mice; week 3, CRH-overexpressed mice, 60 mg/kg oral once a day) was 18.2. For the same compound, the body weight (CRH-overexpressed mice; week 4, CRH-overexpressed mice, 60 mg/kg oral once a day) was 18.1, the body weight (CRH-overexpressed mice; week 5, CRH-overexpressed mice, 60 mg/kg oral once a day) was 18.4 and the body weight (CRH-overexpressed mice; week 6, CRH-overexpressed mice, 60 mg/kg oral once a day) was 17.9. It also gave a body weight (CRH-overexpressed mice; week 7, CRH-overexpressed mice, 60 mg/kg oral once a day) of 19.8, a body weight (CRH-overexpressed mice; week 8, CRH-overexpressed mice, 60 mg/kg oral once a day) of 19.7 and a body weight (CRH-overexpressed mice; week 9, CRH-overexpressed mice, 60 mg/kg oral once a day) of 19.2. The “rate of increase in corticosterone level after stress induction (in words)” value (8-week-old male mice; restraint stress, oral administration) was “rate of increase in corticosterone level decreased”, the corticosterone concentration (8-week-old male mice; 0 min (before stress induction)) was 63.6 and the corticosterone concentration (8-week-old male mice; 60 min (1 hour after stress induction)) was 260.4. The corticosterone concentration (8-week-old male mice; 120 min (2 hours after stress induction)) was 261.4 and the corticosterone concentration (8-week-old male mice; 180 min (1 hour of recovery)) was 105.8.
